Assay results as given in patent US9889115B2, “Fitness assay and associated methods” (priority 1998, dated 2018).

Columns and labels:
Assay in all cases: continuous fluorogenic HIV protease assay
Format in all cases: biochemical
[1] = test system: HIV-1 protease 20R/36I/54V/71V/82T; conditions: 20R/36I/54V/71V/82T relative to WT
Description: (§1) This example describes the protocol for the sensitive continuous fluorogenic assay for HIV protease of the present invention and its application. […] The inhibition constant for wild-type HIV-1, Kimnt/Kiwt ratio, and vitality were measured.
(§2) The reaction was initiated by the addition of 5 μl of substrate stock solution in water. […] The initial rate of hydrolysis was calculated by second degree polynomial fit using SLM AB2 2.0 operating software.
(§3) For inhibition studies, inhibitors were prepared as stock solutions at different concentrations in dimethylsulfoxide. […] The reaction was initiated by the addition of 5 μl of substrate stock solution in water. For data analysis, the mathematical model for tight-binding inhibitors was used.

HIV-1 protease D30N = target: T1, HIV-1 protease D30N (Human immunodeficiency virus type 1 group M subtype B, UniProt P04585, D518N); conditions: D30N relative to WT
T1 construct: the proteases of wild-type HIV-1 (WT) and various mutant enzymes
Description: as §1, §2, §3

HIV-1 protease G48V/L90M = target: T2, HIV-1 protease G48V/L90M (Human immunodeficiency virus type 1 group M subtype B, UniProt P04585, G536V/L578M); conditions: G48V/L90M relative to WT
T2 construct: the proteases of wild-type HIV-1 (WT) and various mutant enzymes
Description: as §1, §2, §3

HIV-1 protease I84V = conditions: I84V relative to WT
Description: as §1, §2, §3

HIV-1 protease M46F/V82A = conditions: M46F/V82A relative to WT
Description: as §1, §2, §3

HIV-1 protease V32I/I84V = target: T3, HIV-1 protease V32I/I84V (Human immunodeficiency virus type 1 group M subtype B, UniProt P04585, I572V/V520I); conditions: V32I/I84V relative to WT
T3 construct: the proteases of wild-type HIV-1 (WT) and various mutant enzymes
Description: as §1, §2, §3

[2] = target: T4, HIV-1 protease V32I/K45I/F53L/A71V/I84V/L89M (Human immunodeficiency virus type 1 group M subtype B, UniProt P04585, A559V/F541L/I572V/K533I/L577M/V520I); conditions: V32I/K45I/F53L/A71V/I84V/L89M relative to WT
T4 construct: the proteases of wild-type HIV-1 (WT) and various mutant enzymes
Description: as §1, §2, §3

[3] = target: T5, HIV-1 protease V32I/L33F/K45I/F53L/A71V/I84V (Human immunodeficiency virus type 1 group M subtype B, UniProt P04585, A559V/F541L/I572V/K533I/L521F/V520I); conditions: V32I/L33F/K45I/F53L/A71V/I84V relative to WT
T5 construct: the proteases of wild-type HIV-1 (WT) and various mutant enzymes
Description: as §1, §2, §3

HIV-1 protease V32I = conditions: V32I relative to WT
Description: as §1, §2, §3

HIV-1 protease V82F/I84V = conditions: V82F/I84V relative to WT (Table 1)
Description: as §1, §2, §3

HIV-1 protease V82T/I84V = HIV-1 protease V82T/I84V (Human immunodeficiency virus type 1 group M subtype B, UniProt P04585, I572V/V570T); conditions: V82T/I84V relative to WT
Description: as §1, §2, §3

[4] = target: T6, wild-type HIV-1 (WT) protease (Human immunodeficiency virus type 1 group M subtype B, UniProt P04585)
T6 construct: the proteases of wild-type HIV-1 (WT)
Description: as §1, §2, §3

With `COc1ccc(S(=O)(=O)N(CC(C)C)C[C@@H](O)[C@H](Cc2ccccc2)NC(=O)O[C@H]2CO[C@H]3OCC[C@H]32)cc1` [Compound 32] the “Biochemical Fitness” value [1] was 0.1, the “Biochemical Fitness” value (HIV-1 protease D30N) was 0.3 and the “Biochemical Fitness” value (HIV-1 protease G48V/L90M) was 0.1. For the same compound, the “Biochemical Fitness” value (HIV-1 protease I84V) was 1, the “Biochemical Fitness” value (HIV-1 protease M46F/V82A) was 0.1 and the “Biochemical Fitness” value (HIV-1 protease V32I/I84V) was 0.7. For the same compound, the “Biochemical Fitness” value [2] was 0.1, the “Biochemical Fitness” value [3] was 0.1 and the “Biochemical Fitness” value (HIV-1 protease V32I) was 0.5. The “Biochemical Fitness” value (HIV-1 protease V82F/I84V) was 0.1, the “Biochemical Fitness” value (HIV-1 protease V82T/I84V) was 0.1 and the “Biochemical Fitness” value [4] was 1.
